Test results from ChEMBL document CHEMBL3045117, “Synthesis, crystal structures, insecticidal activities, and structure--activity relationships of novel N'-tert-Butyl-N'-substituted-benzoyl-N-[di(octa)hydro]benzofuran{(2,3-dihydro)benzo[1,3]([1,4])dioxine}carbohydrazide derivatives” (2011).

Assays:
Assay type in all cases: functional
Mythimna separata [1] = test: Stomach toxicity against third-instar Mythimna separata (Oriental armyworm) in compound treated fresh corn leaves assessed as insecticidal activity at 200 mg/L measured after 4 days by leaf-dip method
Mythimna separata [2] = test: Stomach toxicity against third-instar Mythimna separata (Oriental armyworm) in compound treated fresh corn leaves assessed as insecticidal activity at 50 mg/L measured after 4 days by leaf-dip method
Mythimna separata [3] = test: Stomach toxicity against third-instar Mythimna separata (Oriental armyworm) in compound treated fresh corn leaves assessed as insecticidal activity at 25 mg/L measured after 4 days by leaf-dip method
Mythimna separata [4] = test: Stomach toxicity against third-instar Mythimna separata (Oriental armyworm) in compound treated fresh corn leaves assessed as insecticidal activity at 100 mg/L measured after 4 days by leaf-dip method
Mythimna separata [5] = test: Stomach toxicity against third-instar Mythimna separata (Oriental armyworm) in compound treated fresh corn leaves assessed as insecticidal activity at 10 mg/L measured after 4 days by leaf-dip method
Plutella xylostella [6] = test: Stomach toxicity against third-instar Plutella xylostella (diamondback moth) in compound treated fresh cabbage leaves assessed as insecticidal activity at 200 mg/L measured after 3 days by leaf-dip method
Plutella xylostella [7] = test: Stomach toxicity against third-instar Plutella xylostella (diamondback moth) in compound treated fresh cabbage leaves assessed as insecticidal activity at 50 mg/L measured after 3 days by leaf-dip method
Spodoptera exigua [8] = test: Stomach toxicity against third-instar Spodoptera exigua in compound treated fresh cabbage leaves assessed as insecticidal activity at 10 mg/L measured after 3 days by leaf-dip method
Plutella xylostella [9] = test: Stomach toxicity against third-instar Plutella xylostella (diamondback moth) in compound treated fresh cabbage leaves assessed as insecticidal activity at 100 mg/L measured after 3 days by leaf-dip method
Spodoptera exigua [10] = test: Stomach toxicity against third-instar Spodoptera exigua in compound treated fresh cabbage leaves assessed as insecticidal activity at 50 mg/L measured after 3 days by leaf-dip method
Ostrinia nubilalis = test: Stomach toxicity against third-instar Ostrinia nubilalis (European corn borer) in compound treated fresh corn leaves assessed as insecticidal activity at 200 mg/L measured after 4 days by leaf-dip method
Spodoptera exigua [11] = test: Stomach toxicity against third-instar Spodoptera exigua in compound treated fresh cabbage leaves assessed as insecticidal activity at 200 mg/L measured after 3 days by leaf-dip method
Spodoptera exigua [12] = test: Stomach toxicity against third-instar Spodoptera exigua in compound treated fresh cabbage leaves assessed as insecticidal activity at 100 mg/L measured after 3 days by leaf-dip method

Cc1cc2c(C(=O)NN(C(=O)c3ccc(Cl)cc3)C(C)(C)C)cccc2o1
Activity (Mythimna separata [1]): 0%

Cc1cc(C)cc(C(=O)N(NC(=O)c2ccccc2)C(C)(C)C)c1
Activity (Mythimna separata [2]): 100%
Activity (Mythimna separata [3]): 100%
Activity (Mythimna separata [4]): 100%
Activity (Mythimna separata [5]): 80%
Activity (Mythimna separata [1]): 100%

Cc1cc(C)cc(C(=O)N(NC(=O)c2ccc3cc(C)oc3c2)C(C)(C)C)c1
Activity (Mythimna separata [2]): 100%
Activity (Plutella xylostella [6]): 100%
Activity (Plutella xylostella [7]): 70%
Activity (Spodoptera exigua [8]): 90%
Activity (Plutella xylostella [9]): 100%
Activity (Mythimna separata [3]): 100%
Activity (Mythimna separata [4]): 100%
Activity (Spodoptera exigua [10]): 100%
Activity (Ostrinia nubilalis): 40%
Activity (Mythimna separata [5]): 50%
Activity (Spodoptera exigua [11]): 100%
Activity (Mythimna separata [1]): 100%
Activity (Spodoptera exigua [12]): 100%

Cc1cc(C)cc(C(=O)N(NC(=O)c2ccc3c(c2)OC(C)C3)C(C)(C)C)c1 (configuration not stated)
Activity (Mythimna separata [2]): 100%
Activity (Plutella xylostella [6]): 80%
Activity (Spodoptera exigua [8]): 90%
Activity (Mythimna separata [3]): 100%
Activity (Mythimna separata [4]): 100%
Activity (Spodoptera exigua [10]): 100%
Activity (Ostrinia nubilalis): 60%
Activity (Mythimna separata [5]): 70%
Activity (Spodoptera exigua [11]): 100%
Activity (Mythimna separata [1]): 100%
Activity (Spodoptera exigua [12]): 100%

Cc1cc2c(C(=O)NN(C(=O)c3ccccc3Cl)C(C)(C)C)cccc2o1
Activity (Mythimna separata [1]): 0%

Cc1cc2c(C(=O)NN(C(=O)c3cccc(Cl)c3)C(C)(C)C)cccc2o1
Activity (Mythimna separata [1]): 0%

Cc1cc2c(C(=O)NN(C(=O)c3cc(Cl)cc(Cl)c3)C(C)(C)C)cccc2o1
Activity (Mythimna separata [1]): 0%

Cc1cc2c(C(=O)NN(C(=O)c3cc([N+](=O)[O-])cc([N+](=O)[O-])c3)C(C)(C)C)cccc2o1
Activity (Mythimna separata [1]): 0%

Cc1cc(C)cc(C(=O)N(NC(=O)c2cccc3oc(C)cc23)C(C)(C)C)c1
Activity (Plutella xylostella [6]): 50%
Activity (Ostrinia nubilalis): 40%
Activity (Spodoptera exigua [11]): 70%
Activity (Mythimna separata [1]): 80%

Cc1cc(C)cc(C(=O)N(NC(=O)c2cccc3c2CC(C)O3)C(C)(C)C)c1 (configuration not stated)
Activity (Mythimna separata [2]): 100%
Activity (Plutella xylostella [6]): 100%
Activity (Plutella xylostella [7]): 50%
Activity (Spodoptera exigua [8]): 80%
Activity (Plutella xylostella [9]): 100%
Activity (Mythimna separata [3]): 100%
Activity (Mythimna separata [4]): 100%
Activity (Spodoptera exigua [10]): 100%
Activity (Ostrinia nubilalis): 70%
Activity (Mythimna separata [5]): 60%
Activity (Spodoptera exigua [11]): 100%
Activity (Mythimna separata [1]): 100%
Activity (Spodoptera exigua [12]): 100%

Cc1cc(C)cc(C(=O)N(NC(=O)c2cccc3c2OCO3)C(C)(C)C)c1
Activity (Mythimna separata [2]): 100%
Activity (Plutella xylostella [6]): 0%
Activity (Mythimna separata [3]): 30%
Activity (Mythimna separata [4]): 100%
Activity (Ostrinia nubilalis): 30%
Activity (Spodoptera exigua [11]): 100%
Activity (Mythimna separata [1]): 100%
Activity (Spodoptera exigua [12]): 80%

Cc1cc(C)cc(C(=O)N(NC(=O)c2cccc3c2OCCO3)C(C)(C)C)c1
Activity (Mythimna separata [1]): 0%

Cc1cc(C)cc(C(=O)N(NC(=O)c2cccc3c2CCCO3)C(C)(C)C)c1
Activity (Plutella xylostella [6]): 0%
Activity (Ostrinia nubilalis): 0%
Activity (Spodoptera exigua [11]): 0%
Activity (Mythimna separata [1]): 30%

Cc1cc(C)cc(C(=O)N(NC(=O)C2CCCC3OC(C)CC32)C(C)(C)C)c1 (configuration not stated)
Activity (Mythimna separata [1]): 0%

Cc1cc(C)cc(C(=O)N(NC(=O)C2CCCCC2)C(C)(C)C)c1
Activity (Mythimna separata [2]): 20%
Activity (Mythimna separata [4]): 100%
Activity (Mythimna separata [1]): 100%

Cc1cc(C)cc(C(=O)N(NC(=O)c2ccc3c(c2C)CCCO3)C(C)(C)C)c1 [CHROMAFENOZIDE]
Activity (Mythimna separata [2]): 100%
Activity (Plutella xylostella [6]): 100%
Activity (Plutella xylostella [7]): 100%
Activity (Spodoptera exigua [8]): 100%
Activity (Plutella xylostella [9]): 100%
Activity (Mythimna separata [3]): 100%
Activity (Mythimna separata [4]): 100%
Activity (Spodoptera exigua [10]): 100%
Activity (Ostrinia nubilalis): 100%
Activity (Mythimna separata [5]): 100%
Activity (Spodoptera exigua [11]): 100%
Activity (Mythimna separata [1]): 100%
Activity (Spodoptera exigua [12]): 100%

Cc1cc(C)cc(C(=O)N(NC(=O)c2ccc3c(c2C)OC(C)C3)C(C)(C)C)c1 (configuration not stated) [FUXIAN]
Activity (Mythimna separata [2]): 100%
Activity (Plutella xylostella [6]): 100%
Activity (Plutella xylostella [7]): 100%
Activity (Spodoptera exigua [8]): 90%
Activity (Plutella xylostella [9]): 100%
Activity (Mythimna separata [3]): 100%
Activity (Mythimna separata [4]): 100%
Activity (Spodoptera exigua [10]): 100%
Activity (Ostrinia nubilalis): 100%
Activity (Mythimna separata [5]): 100%
Activity (Spodoptera exigua [11]): 100%
Activity (Mythimna separata [1]): 100%
Activity (Spodoptera exigua [12]): 100%

COc1cccc(C(=O)NN(C(=O)c2cc(C)cc(C)c2)C(C)(C)C)c1C [METHOXYFENOZIDE]
Activity (Mythimna separata [2]): 100%
Activity (Plutella xylostella [6]): 100%
Activity (Plutella xylostella [7]): 100%
Activity (Spodoptera exigua [8]): 100%
Activity (Plutella xylostella [9]): 100%
Activity (Mythimna separata [3]): 100%
Activity (Mythimna separata [4]): 100%
Activity (Spodoptera exigua [10]): 100%
Activity (Ostrinia nubilalis): 100%
Activity (Mythimna separata [5]): 100%
Activity (Spodoptera exigua [11]): 100%
Activity (Mythimna separata [1]): 100%
Activity (Spodoptera exigua [12]): 100%
